Source: US6365634B1, “Naturally occurring compounds and their derivatives as cyclooxygenase 2 and/or 5-lipoxygenase inhibitors” (C-P Technology Limited Partnership, priority 1997, dated 2002)

Columns and labels:
[1] = molecular target: T1, ovine COX I (Ovis aries, UniProt P05979); assay: COX I biochemical assay (ram seminal vesicle preparation)
T1 construct: a ram seminal vesicle preparation enriched in COX I (Biomol) was used; tissue Biomol; host or cells: ram seminal vesicle
T1 sequence (P05979 25-600): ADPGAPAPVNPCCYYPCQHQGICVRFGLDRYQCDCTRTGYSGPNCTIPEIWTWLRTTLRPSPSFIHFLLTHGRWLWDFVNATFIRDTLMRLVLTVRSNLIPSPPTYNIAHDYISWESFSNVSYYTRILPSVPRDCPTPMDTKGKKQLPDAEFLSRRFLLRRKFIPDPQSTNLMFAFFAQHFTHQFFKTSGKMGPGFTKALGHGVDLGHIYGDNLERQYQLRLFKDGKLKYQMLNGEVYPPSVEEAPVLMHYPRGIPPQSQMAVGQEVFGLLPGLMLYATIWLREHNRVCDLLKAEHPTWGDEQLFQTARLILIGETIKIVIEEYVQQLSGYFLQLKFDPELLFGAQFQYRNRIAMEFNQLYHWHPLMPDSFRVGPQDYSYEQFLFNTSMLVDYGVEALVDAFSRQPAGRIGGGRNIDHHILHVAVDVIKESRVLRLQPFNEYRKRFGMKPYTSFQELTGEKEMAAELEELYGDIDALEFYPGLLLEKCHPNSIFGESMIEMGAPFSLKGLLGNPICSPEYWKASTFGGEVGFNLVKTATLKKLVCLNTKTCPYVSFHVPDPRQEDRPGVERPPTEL
Procedure: Both the COX I and COX II assays were performed using modified versions of previously reported methods (Corey, E. J., Shih, C., and Cashman, J. R., 1983 Proc. Natl. Acad. Sci. v80, p3; Sigal, E., Grunberger, D., Cashman, J. R., Craik, C. S., Caughey, G. H., and Nadel, J. A., 1988 Biochem. Biophys. Res Comm. v150(1), p376). To assess for the presence of compounds in the peat bog extracts that were capable of inhibiting COX II, purified human recombinant COX II (Oxford Chemical) was suspended in 50 uL of COX assay buffer (50 mM Tris, pH 8.0) containing 0.2 mM hydroquinone, 5.0 mM tryptophan, 1.0 uM hematin, and 1.0 mM glutathione. […]
The assessment of cyclooxygenase activity (both COX I and II) in the presence and absence of the peat bog extracts was based on the quantitation of tlhe radiolabeled arachidonic acid metabolites prostaglandin A2 (PGA2), PGE2, and PGF2-alpha. […] The bands were visualized by UV-vis or I2 staining and scraped into scintillation vials for quantitation. […] The total enzyme activity (At), the corrected enzyme activity in the presence of an inhibitor (Ai), and % inhibition were calculated by the following equations: […]
The inhibitory activity of dehydroabietic acid methyl ester was assessed by performing biochemical assays that utilized 1) human recombinant COX II, 2) ovine COX I, and 3) rabbit reticulocyte 15-LO. […]

[2] = tested on: human keratinocyte LTB4 production; assay: Cell-based 5-LO assay: LTB4 production by cultured human keratinocytes (enzyme immunoassay); conditions: 5, 1.0, 0.2 and 0.04 uM, 24 hours, high calcium medium
Excerpt: In addition to assessing the effect of dehydroabietic acid methyl ester on the production of PGE2 by human keratinocytes, the human keratinocyte culture system was also used to assess for the inhibition of LTB4 production. Keratinocytes have not been used as extensively as other cell types for 5-LO studies, however, human keratinocytes produce appreciable amounts of LTB4 and production of this eicosanoid by cultured keratinocytes is inhibited by known inhibitors of 5-LO (see FIG. 11). To assess for inhibition of LTB4 production, human keratinocytes were cultured as described above. Following introduction of the high calcium media, the identical dilution series of dehydroabietic acid methyl ester as described above in the PGE2 study was added to duplicate wells of keratinocytes. Twenty-four hours later culture media samples were removed from each well and the amount of LTB4 in each sample determined using an enzyme immunoassay specific for LTB4 (Cayman Chemical). As was done with the PGE2 assay described above, the percent inhibition was calculated based on a comparison between vehicle treated control cultures and cultures treated with dehydroabietic acid methyl ester or Rev 5901 (a specific 5-LO inhibitor; Cayman Chemical).

| Compound | Percent Inhibition of COX I ([1]; final concentration of 250 uM) [%] | inhibition of LTB4 production by cultured human keratinocytes [2] | Percent Inhibition of COX I ([1]; pure 4-cumylphenol, assay as Example 2B, concentration not given) [%] |
| --- | --- | --- | --- |
| COC(=O)[C@]1(C)CCC[C@]2(C)c3ccc(C(C)C)cc3CC[C@@H]12 [Dehydroabietic acid methyl ester, dehydroabietic acid methyl ester] | 0.2 | inhibited the production of LTB4 by cultured human keratinocytes in a dose-dependent manner | – |
| CC(C)(c1ccccc1)c1ccc(O)cc1 [4-Cumylphenol, 4-cumylphenol] | – | – | 1.6 |
